# Assay results taken from article PMC12122428, “Discovery of non-covalent rhinovirus 3Cpro inhibitors by molecular docking, in vitro assays, molecular dynamics simulations and DFT analyses” (Frontiers in Pharmacology, 2025).
# Read-outs that look alike come from different tables or passages of the source.
# Columns and labels:
# [1] = biological target: T1, HRV-14 3Cpro (Human rhinovirus 14, UniProt P03303); assay: HRV-14 3Cpro enzyme inhibition assay (Dabcyl-[…]-Edans cleavage, fluorescence); format: biochemical; details: for inhibition at 50 µM / Inhibition % HRV 3Cpro @ 50 μM: 50 μM compound, single point; for IC50: concentration-response, 50 μM to 0.617 μM, n = 5, mean ± SEM
# T1 construct: most efficiently processed substrate by HRV-14 3Cpro (Acro, Beijing, China); purchased Acro, Beijing, China
# T1 sequence (P03303 1538-1719): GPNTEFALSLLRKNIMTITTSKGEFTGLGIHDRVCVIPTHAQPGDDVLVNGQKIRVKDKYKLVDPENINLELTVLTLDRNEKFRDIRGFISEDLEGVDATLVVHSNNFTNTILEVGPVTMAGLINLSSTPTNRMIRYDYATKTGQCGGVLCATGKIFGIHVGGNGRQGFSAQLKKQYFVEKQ
# Description: In the in vitro cleavage assay, the peptide Dabcyl-[…]-Edans was identified as the most efficiently processed substrate by HRV-14 3Cpro (Acro, Beijing, China), and was subsequently utilized in the enzyme inhibition assay. A total of 44 candidate compounds were purchased from Topscience (TargetMol, United States). Dimethyl sulfoxide (DMSO) (Innochem, Beijing, China) served as the solvent for dissolving the compounds, and all solutions were stored at −20°C. The assays were conducted using 100 μL reaction samples, which comprised 1 μL of protease, 10 μL of a 10 μM substrate solution, and varying concentrations of the tested compounds (ranging from 50 μM to 0.617 μM) in a 50 mM Tris buffer at pH 7.0. To evaluate the inhibitory effects of the compounds, the protease and each compound were preincubated at 37°C for 30 min before the addition of the substrate. The reaction mixture was subsequently incubated for 1 h at 37°C. Fluorescence measurements were performed using a multifunction enzyme label reader (SpectraMax M5, Molecular Devices), set to an excitation wavelength of 340 nm and an emission wavelength of 490 nm. […] The inhibition rate was quantified according to the following formula: Inhibition rate 100%=RFUemzyme−RFUsample/RFUemzyme−RFUcontrol×100%
# [2] = system: HRV-14; details: ref Binford et al., 2007; Zalman et al., 2000; read-out: antiviral activity EC50; cited from earlier work
# [3] = biological target: T1, HRV-14 3Cpro; details: cited from earlier work
SMILES,inhibition at 50 µM [1] [%],Inhibition % HRV 3Cpro @ 50 μM [1] [%],IC50 [1] [µM],EC50 [2] [nM],"pIC50 ([3]; non-covalent inhibitor, ref Baxter et al., 2011)","IC50 ([3]; macrocyclic covalent inhibitor, ref Kawatkar et al., 2016, Namoto et al., 2018) [nM]"
CCOc1ccc(NC(=O)[C@H](CC(C)C)NC(=O)[C@H]2CC[C@@H](C)CC2)cc1 [Compound S34],75.6,75.5,24.1 ± 0.55,–,–,–
CCC(CC)C(=O)Nc1cccc(C(=O)Nc2ccccc2C(=O)Nc2ccc(OC)cc2)c1 [Compound S43],88.8,88.7,2.33 ± 0.5,–,–,–
Nc1c(NC(=O)NC[C@H]2CCCO2)c(-c2ccccc2)nn1-c1ccc(C(F)(F)F)cc1 [Compound S21],80.5,80.5,30.4 ± 0.67,–,–,–
O=C(COC(=O)[C@@H](CC(=O)c1ccccc1)Nc1ccc(F)cc1)c1ccccc1 [Compound S33],96.5,–,11.3 ± 0.71,–,–,–
"CCOC(=O)/C=C/[C@H](C[C@@H]1CCNC1=O)NC(=O)[C@@H](CC(=O)[C@@H](NC(=O)c1cc(C)on1)C(C)C)Cc1ccc(F)cc1 [Rupintrivir, reference compound]",–,–,0.22 ± 0.34,12,–,–
O=c1cc(-c2cccnc2)[nH]c2cc(Cc3ccccc3)ccc12 [Compound 14],–,–,–,–,4.7,–
Cc1occc1C(=O)N[C@@H]1C(=O)N[C@@H](Cc2ccc(F)cc2)C(=O)N[C@H](C=O)CCC(=O)N(C)Cc2cccc1c2 [compound 10],–,–,–,–,–,8
